What all share (format): physicochemical
The nature of one data set: UV assay of actives. The following applies: UV absorbance at λmax, sample vs standard; ODF samples Examples 3-5. Here is the method:
A stock solution of 1000 μg/ml of alpha lipoic acid were prepared in methanol and measured absorbance at 322 nm.
Standard β-carotene for identification was prepared in DCM to obtain 1000 μg/mL and measured absorbance at 461 nm.
2 ml of the standard and sample solution of folic acid was taken in marked test tubes. In each test tube, 2 ml of 0.02% potassium permanganate solution, 2 ml 2% […] solution, 2 ml 4 M hydrochloric acid solution, 1 ml 5% ammonium sulphamate solution and 1 ml dye solution (0.1% N, N diethyl aniline dye solution in iso propyl alcohol) added and mixed well, then kept for 15 minute at room temperature. It was absorbance recorded at 535 nm against blank.
2 ml of the standard and sample solution of Vitamin B6 was taken in marked test tubes. In each test tube, 1 ml of ammonium buffer (in water), 1 ml of 20% sodium acetate (in water), 1 ml of 5% boric acid (in water) and 1 ml dye (2,6-di-chloroquinine chorimide) solution added and mixed well. It was absorbance recorded at 650 nm against blank.
The assay were prepared of standard and sample solutions of four actives, that is, lipoic acid, β-carotene, folic acid and Vitamin B6 respectively.

The nature of data set [1]: In-vitro disintegration time during formulation development (saliva stimulant and flavour optimisation). The text has this:
The purpose of using saliva stimulating agents is to increase the rate of production of saliva that would aid in the faster disintegration of the rapid dissolving strip formulations.
The concentration of menthol, eucalyptol and sucralose was optimized according to the mouth feel, freshening effect and the formulation was checked for its effect on disintegration time (Table 5).

Data set [2] is described as follows: Gas chromatography assay of actives in mouth freshener film. As to conditions: for Assay result (%): GC result relative to formula content, mouth freshener film; for GC Result (%): content in mouth freshener film. The text has this:
Gas Chromatography is quantitative study use to determine assay of actives. GC was done by Bangalore Testing Laboratories Pvt. Ltd., Bangalore (FIG. 8). The GC is used to observe whether the active is intact in the film without its decomposition. Table 15 illustrated all the characteristic peaks of the actives (menthol, thymol, methyl salicylate, eucalyptol) used in the composition.

Data set [3] in a line: Thermogravimetric analysis (TGA). The following applies: 30-360° C. at 20° C./min. On the procedure:
Thermogravimetric analysis (TGA) studies (Perkin Elmer Pyris 1, Shelton, Conn., USA) were performed to estimate the thermal stability of the actives and excipients during HME processing. Data were analyzed using Pyris software. The API excipients were heated from 30-360° C. at 20° C./min.

A short description of data set [4]: Raman spectroscopy for stability of active after HME. As to conditions: ODF containing Vitamin B12 (Example 6), Raman spectra. On the procedure:
Raman spectroscopy is a spectroscopic technique commonly used in chemistry to provide a structural fingerprint by which molecules can be identified. It can identify a particular molecule/API based on the Raman shift. The formulated ODFs were analyzed using Raman spectra for identification of stability of active in the delivery system after processing using HME. The Raman spectra was recorded with a LabRam HR800 (Horiba Jovan Yvon, UK) equipped with a 534-nm Ar—Ne laser. The laser excitation was focused using a 50 objective (Olympus Corporation, Japan) and the scattered light was totally transmitted through the notch filter towards the confocal hole and entrance slit of the spectrograph. The stokes-shifted Raman scatter was dispersed using a […] grating onto a peltier-cooled changed-coupled device (CCD, Andor Technology PLC) to capture a spectrum. Each sample had their spectra measured using […] excitation (at 534 nm) of 250 mW and continuous readout of Raman shift spectrum from 0 to 3500 cm^−1. Spectra were acquired using a 50× objective and a […] confocal hole. A 600 lines/mm rotatable diffraction grating along a path length of 800 mm was used to simultaneously scan a range of frequencies. Raman spectra were collected using a Synapse CCD detector (1024 pixels).

Regarding `CC1=C(/C=C/C(C)=C/C=C/C(C)=C/C=C/C=C(C)/C=C/C=C(C)/C=C/C2=C(C)CCCC2(C)C)C(C)(C)CCC1` [B carotene], the “Assay of actives Result (%)” value in the data set “UV assay of actives” is 98.28%. For the compound `O=C(O)CC(O)(CC(=O)O)C(=O)O` [Citric acid], the Disintegration time is 14 s in data set [1] (saliva stimulating agent at 1 % composition), “Less than 10 seconds” in data set [1] (saliva stimulating agent at 5 % composition) and “Less than 10 seconds” in data set [1] (saliva stimulating agent at 10 % composition).

As to `CC12CCC(CC1)C(C)(C)O2` [Eucalyptol], in data set [2], the “Assay result (%)” value amounted to 96.6% and the “GC Result (%)” value is 0.023(cineole %. Consider `Nc1nc2ncc(CNc3ccc(C(=O)N[C@@H](CCC(=O)O)C(=O)O)cc3)nc2c(=O)[nH]1` [Folic acid], for which the “Assay of actives Result (%)” value in “UV assay of actives” is given as 99.1%. Still for that read-out and setting: the same measure for `O=C(O)CCCCC1CCSS1` (centres unmarked) [Lipoic acid]: 100.5%. For the compound `CC1CCC(C(C)C)C(O)C1` (centres unmarked) [Menthol], in data set [2], the “Assay result (%)” value was determined as 92.1% and the “GC Result (%)” value was 0.035%. Turning to `COC(=O)c1ccccc1O` [Methyl Salicylate], in data set [2], the “Assay result (%)” value turned out to be 92.8% and the “GC Result (%)” value is on record as 0.052%. In data set [3], `OC[C@H]1O[C@H](O[C@]2(CCl)O[C@H](CCl)[C@@H](O)[C@@H]2O)[C@H](O)[C@@H](O)[C@H]1Cl` [Sucralose] yielded a loss of weight of under 7%. In the case of `Cc1ccc(C(C)C)c(O)c1` [Thymol], in data set [2], the “Assay result (%)” value came out at 104.3% and the “GC Result (%)” value was found to be 0.097%. Take Vit B6: the “Assay of actives Result (%)” value in “UV assay of actives” was determined as 99.3%. As for Vitamin B12, the “stability of active after twin-screw HME processing” value in data set [4] is given as “does not degrade”.

The record behind these values is patent US20190336453A1, “ORAL DISPERSIBLE FILM COMPOSITION” (BonAyu Lifesciences Private Limited, priority 2017, published 2019).
